Consider three compounds from PMC11472313, “Development of Fragment-Based Inhibitors of the Bacterial Deacetylase LpxC with Low Nanomolar Activity” (Journal of Medicinal Chemistry, 2024).

The target of one series is T1, MMP1 (Homo sapiens, UniProt P03956).
T1 construct: purchased AnaSpec (Fremont, CA, USA)
T1 sequence (P03956 100-469): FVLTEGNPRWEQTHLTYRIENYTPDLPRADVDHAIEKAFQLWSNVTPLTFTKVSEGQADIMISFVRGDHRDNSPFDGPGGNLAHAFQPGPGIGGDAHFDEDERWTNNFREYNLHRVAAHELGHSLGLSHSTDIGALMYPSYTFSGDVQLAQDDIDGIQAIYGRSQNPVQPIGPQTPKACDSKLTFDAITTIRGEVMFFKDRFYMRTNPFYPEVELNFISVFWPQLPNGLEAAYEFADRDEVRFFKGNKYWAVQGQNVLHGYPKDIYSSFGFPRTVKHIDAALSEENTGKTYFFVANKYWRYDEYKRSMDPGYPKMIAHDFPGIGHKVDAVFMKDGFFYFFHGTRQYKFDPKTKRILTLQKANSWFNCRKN
The series is described as follows: MMP1 inhibition (SensoLyte 520 Generic MMP Activity Kit). The series is classed as biochemical. Conditions: read-out: MMP1 (% inhibition at 100 μM). The method, then:
Since LpxC and LasB are zinc-dependent enzymes, we investigated potential off-target activity of the three frontrunners on mammalian zinc-dependent enzymes. Our panel comprised three representative matrix-metalloproteases (MMP1–3) and tumor necrosis factor-α converting enzyme (TACE, also known as ADAM17) (Table 6).
Purification of LasB from P. aeruginosa PA14 supernatant and the subsequent performance of the FRET-based in vitro inhibition assay was performed as described previously.[66] The TACE (ADAM-17) inhibitor screening kit was purchased from Sigma-Aldrich (Saint Louis, MO). MMPs 1–3 along with the SensoLyte 520 Generic MMP Activity Kit Fluorimetric were purchased from AnaSpec (Fremont, CA, USA). The assays were performed according to the guidelines of the respective manufacturer. Fluorescence signals were measured using a CLARIOstar plate reader (BMG Labtech, Ortenberg, Germany).

Series [1] can be described thus: microsomal metabolic stability, mouse. The series is classed as in vitro ADME. Conditions: for microsomal CLint: mouse liver microsomes; for half-life: mouse, liver microsomes, read-out: microsomal metabolic stability t1/2. The procedure: (§1) Also, the plasma stability of the compounds in mouse plasma was generally low with half-lives between 22.9 min [(S)-13h] and 43.1 min [(S)-13j].
(§2) The microsomal metabolic stability assay as well as the plasma protein binding assay were conducted as described previously.[78]
(§3) Samples were analyzed using an Agilent 1290 Infinity II HPLC system coupled to an AB Sciex QTrap 6500plus mass spectrometer. LC conditions were as follows: column: Agilent Zorbax Eclipse Plus C18, 50 × 2.1 mm, 1.8 μm; temperature: 30 °C; injection volume: 5 μL per sample; flow rate: 700 μL min^–1. Samples were run under acidic conditions. Solvents: (A) water + 0.1% formic acid; (B) 95% acetonitrile/5% H2O + 0.1% formic acid. Gradient elution: (A %): 0–0.1 min: 99%, 0.1–3.5 min: gradient from 99 to 50%, 3.5–3.8 min: gradient from 50 to 0%, 3.8–4.7 min: gradient from 0 to 99%. Mass transitions for controls and compounds are depicted in Table S3.

A short description of series [2]: microsomal metabolic stability, human. Conditions: human liver microsomes; for half-life: read-out: microsomal metabolic stability t1/2. The series is classed as in vitro ADME. The method, then:
as §1, §2, §3
For orientation: Liver microsomes are a subcellular fraction often used to study metabolism.

Bounds are passed on as bounds.

What is called inhibition is the change of the read-out against control, counted positive when it falls. One may read the microsomal CLint as a measure of how fast metabolising enzymes remove a compound, apart from limits set by blood flow. A lower microsomal CLint goes with greater metabolic stability. `O=C(NC[C@H](OCc1ccc(C#Cc2ccc(CN3CCOCC3)cc2)cc1)C(=O)NO)c1c[nH]c2ccccc12` [(S)-13h]: on MMP1, the inhibition at 100 µM was 15 ± 7%. Moreover, in series [1], the microsomal CLint was less than 23 µL/min/mg and the half-life was greater than 1 h. Moreover, in series [2], the microsomal CLint is less than 23 µL/min/mg and the half-life is greater than 1 h.
In the case of `O=C(NC[C@H](OCc1ccc(C#Cc2ccc(CN3CCOCC3)cc2)cc1)C(=O)NO)c1ccc2[nH]ccc2c1` [(S)-13j], the inhibition at 100 µM at MMP1 was less than 10%. For the same compound, in series [1], the microsomal CLint was less than 23 µL/min/mg and the half-life was greater than 1 h. For the same compound, in series [2], the microsomal CLint is less than 23 µL/min/mg and the half-life was greater than 1 h.
On to `O=C(NC[C@H](OCc1ccc(C#Cc2ccc(CN3CCOCC3)cc2)cc1)C(=O)NO)c1cc[nH]n1` [(S)-13l], for which, on MMP1, the inhibition at 100 µM amounted to 11 ± 6%. Besides, in series [1], the microsomal CLint was found to be 26 µL/min/mg and the half-life was roughly 0.883 h. Moreover, in series [2], the microsomal CLint was less than 23 µL/min/mg and the half-life was greater than 1 h.
